According to PMC5132201, “Formylated MHC Class Ib Binding Peptides Activate Both Human and Mouse Neutrophils Primarily through Formyl Peptide Receptor 1” (PLoS ONE, 2016):
Square brackets hold non-standard residues; d marks the D form. Ends that are not written are not given here. Peptide text beside a SMILES is read from it. * marks the point of attachment. For = O=C*

Assays:
H2-M3 = settings: crystal structure study; cited from earlier work
Text: Much less is known about the murine Fprs. It is clear that mouse neutrophils express orthologous of FPR1 and FPR2 (Fpr1 and Fpr2, respectively), but the pharmacological similarities/differences between the human and mouse neutrophil receptors have not been characterized in detail. […] In addition to Fprs, another immune response system, the H2-M3 complex, has evolved in ...

FPR1 = experiment: NADPH-oxidase activity in human neutrophils pre-incubated with the FPR1 antagonist cyclosporine H; assay type: cell-based; settings: for Effect of cyclosporine H on the peptide-induced activity: human neutrophils pre-incubated 5 min at 37°C with 1 μM cyclosporine H (FPR1 antagonist); for Preferred receptor: human neutrophils, from cyclosporine H / PBP10 sensitivity
Description: (§1) NADPH-oxidase activity was determined using isoluminol and HRP-enhanced chemiluminescence (CL) systems that allow for the determination of superoxide production. […] The tubes containing 4 U HRP and 10 μg/ml isoluminol together with the cells were equilibrated in the Biolumat for 10 min at 37°C, after which the stimulus (100 μl) was added. The light emission was recorded continuously.
(§2) Neutrophil NADPH-oxidase activity was measured by an isoluminol/HPR chemiluminescence system. […] (10 nM; time for addition indicated by an arrow). […] (1 μM) in the presence or absence (control) of FPR specific inhibitors. Abscissa, Time of study (min); ordinate, superoxide production (in arbitrary light units, cpmx10^-6). […] Data are expressed as mean ± SD from four independent experiments. Abscissa, agonist concentration (M); ordinate, superoxide production (percent of max).

[1] = target: T1, bone marrow derived mouse neutrophils (Mus musculus, UniProt P33766); settings: for EC50, NADPH-oxidase activity (superoxide production): TNF-α primed bone marrow derived mouse neutrophils, isoluminol/HRP chemiluminescence, 37°C, peak response as percent of maximal response, mean of 3-4 independent experiments; for Relative potency, mouse versus human neutrophils: comparison of EC50 values of NADPH-oxidase activation in the two species
T1 sequence (P33766 1-364): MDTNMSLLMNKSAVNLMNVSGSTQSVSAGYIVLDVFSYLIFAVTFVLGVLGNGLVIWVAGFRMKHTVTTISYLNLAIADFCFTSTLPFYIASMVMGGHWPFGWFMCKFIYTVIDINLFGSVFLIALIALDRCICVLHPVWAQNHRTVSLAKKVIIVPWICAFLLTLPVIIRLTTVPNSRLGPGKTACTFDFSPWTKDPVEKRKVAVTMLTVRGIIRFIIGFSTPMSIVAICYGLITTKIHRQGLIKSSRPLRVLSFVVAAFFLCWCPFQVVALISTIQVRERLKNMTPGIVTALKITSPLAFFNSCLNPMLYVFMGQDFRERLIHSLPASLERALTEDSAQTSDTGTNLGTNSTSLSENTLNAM

FPR2 = experiment: NADPH-oxidase activity in human neutrophils pre-incubated with the FPR2 antagonist PBP10; assay type: cell-based; settings: human neutrophils pre-incubated 5 min at 37°C with 1 μM PBP10 (FPR2 antagonist)
Description: as §1, §2

human neutrophils = target: T2, human neutrophils (Homo sapiens, UniProt P21462); experiment: NADPH-oxidase activity (superoxide production), isoluminol/HRP chemiluminescence, human neutrophils; assay type: cell-based; settings: for Concentration needed to induce full NADPH-oxidase activity: efficacy close to that of fMIFL; for EC50, NADPH-oxidase activity (superoxide production): isoluminol/HRP chemiluminescence, 37°C, peak response as percent of maximal response, mean of 3-4 independent experiments
T2 sequence (P21462 1-350): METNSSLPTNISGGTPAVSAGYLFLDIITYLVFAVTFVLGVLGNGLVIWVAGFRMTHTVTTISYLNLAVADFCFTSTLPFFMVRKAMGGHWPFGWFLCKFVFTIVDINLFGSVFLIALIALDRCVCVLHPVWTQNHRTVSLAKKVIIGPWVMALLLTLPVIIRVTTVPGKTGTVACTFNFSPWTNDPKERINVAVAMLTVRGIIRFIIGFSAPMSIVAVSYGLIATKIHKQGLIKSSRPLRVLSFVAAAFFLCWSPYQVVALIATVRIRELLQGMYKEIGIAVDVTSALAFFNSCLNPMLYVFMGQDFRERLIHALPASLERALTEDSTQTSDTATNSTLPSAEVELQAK

Fpr2^-/- neutrophils = experiment: NADPH-oxidase activity in neutrophils from wild type versus Fpr2-/- mice; assay type: cell-based; settings: mouse neutrophils; from WT versus Fpr2-/- cells
Description: Mice (10–16 weeks of age) were killed by cervical dislocation, the femurs and tibias were removed and freed of soft tissue attachments, and the extreme distal tip of each extremity was cut off. KRG without Ca^2+ and Mg^2+ (KRG-) was forced through the bone by using a 1-ml syringe with a 27-gauge needle. After dispersing cell clumps and removing the debris, the bone marrow granulocytes were isolated according to an earlier described procedure [26] with some modifications. Briefly, cell suspensions in 2 ml of KRG (−) were laid on top of a three-layer Percoll gradient (1.095, 1.085, and 1.070 g/ml). The density of each Percoll solution was verified using density marker beads. […] The cell number and population of bone marrow cells were determined by flow cytometry.
NADPH-oxidase activity was determined using isoluminol and HRP-enhanced chemiluminescence (CL) systems that allow for the determination of superoxide production [27, 28]. […] The light emission was recorded continuously.
Naïve bone marrow cells produce very low level of superoxide upon stimulation and to increase this production, the cells were routinely primed for one hour at RT follow by mouse recombinant TNF-α (10 ng/ml, final concentration) priming for a period of 20 min at 37°C, after which the cells were stimulated and ROS production was determined as described above.

M3 = settings: high-, medium- and low-binders by induction of M3 expression on P388-M3 transfected cells; cited from earlier work
[2] = target: formyl peptide receptor 1 (human) (human (endogenous in neutrophils)) (UniProt P21462)
[3] = target: formyl peptide receptor 1 (mouse) (mouse (endogenous in bone marrow neutrophils)) (UniProt P33766)
[4] = target: formyl peptide receptor 1 (human) (human (endogenous in neutrophils)) (UniProt P21462); remark: listed apart in the source
[5] = target: formyl peptide receptor 1 (human) (human (endogenous in neutrophils)) (UniProt P21462); remark: listed apart in the source

CC[C@H](C)[C@H](NC(=O)[C@H](CC(N)=O)NC(=O)[C@@H](NC(=O)[C@H](Cc1ccccc1)NC(=O)[C@H](Cc1ccc(O)cc1)NC(=O)[C@H](CCSC)NC=O)[C@@H](C)CC)C(=O)N[C@@H](CC(C)C)C(=O)N[C@H](C(=O)N[C@@H](CC(C)C)C(=O)O)[C@@H](C)O (For-MYFINILTL-OH; C-terminus assumed)
Preference of H2-M3 for binding the N-formylated over the non-formylated peptide (H2-M3): 10^4 fold | Effect of cyclosporine H on the peptide-induced activity (FPR1): inhibited | Preferred receptor (FPR1): FPR1 | EC50 [1]: 14 nM | EC50, NADPH-oxidase activity (superoxide production) [1]: low nM range | Effect of PBP10 on the peptide-induced activity (FPR2): no inhibition | Agonist efficacy (full/partial) (human neutrophils; human neutrophils, compared with fMLF or fMIFL): full agonist | Concentration needed to induce full NADPH-oxidase activity (human neutrophils; human neutrophils): around 100 nM | Preferred receptor (Fpr2^-/- neutrophils): Fpr1

GYFINILTL
Neutrophil activation [1]: Neither human nor mouse neutrophils could be activated | Neutrophil activation (human neutrophils): Neither human nor mouse neutrophils could be activated

MYFINILTL
Effect of cyclosporine H on the peptide-induced activity (FPR1): not by cyclosporine H | Preferred receptor (FPR1): FPR2 | NADPH-oxidase activity induced [1]: No activity | Effect of PBP10 on the peptide-induced activity (FPR2): inhibited by PBP10 | NADPH-oxidase activity induced (human neutrophils; human neutrophils, concentrations lower than 1 μM): No activity | NADPH-oxidase activity induced (human neutrophils; human neutrophils, peptide 1 μM (Fig 1A inset)): very low level of activity

fGYFINILTL
Neutrophil activation [1]: Neither human nor mouse neutrophils could be activated | Neutrophil activation (human neutrophils): Neither human nor mouse neutrophils could be activated

fMFFLDA
M3 binding affinity group (M3): middle range | Relative potency, mouse versus human neutrophils [1]: very similar in the two species

fMILLV [formylated peptide from a Mycobacterium tuberculosis transport permease]
M3 binding affinity group (M3): highest M3 affinity | EC50, NADPH-oxidase activity (superoxide production) [1]: low nM range | Relative potency, mouse versus human neutrophils [1]: equally potent | Concentration needed to induce full NADPH-oxidase activity (human neutrophils; human neutrophils): around 100 nM | EC50, NADPH-oxidase activity (superoxide production) (human neutrophils; human neutrophils): low nM range

fMIVIL [formylated peptide from a not identified protein in Listeria monocytogenes]
M3 binding affinity group (M3): highest M3 affinity | EC50, NADPH-oxidase activity (superoxide production) [1]: low nM range | Relative potency, mouse versus human neutrophils [1]: order of potency was reversed | EC50, NADPH-oxidase activity (superoxide production) (human neutrophils; human neutrophils): low nM range

fMIVVLV [formylated peptide from a Mycobacterium tuberculosis pyrophosphohydrolase]
M3 binding affinity group (M3): highest M3 affinity | EC50, NADPH-oxidase activity (superoxide production) [1]: low nM range | Relative potency, mouse versus human neutrophils [1]: more potent on mouse cells than on human cells | EC50, NADPH-oxidase activity (superoxide production) (human neutrophils; human neutrophils): low nM range

fMLFAAL [formylated peptide from a Mycobacterium tuberculosis permease]
M3 binding affinity group (M3): lowest binding affinity | Relative potency, mouse versus human neutrophils [1]: potencies were reversed | Potency rank among the peptides (human neutrophils; human neutrophils): most potent to activate human neutrophils | Concentration needed to induce full NADPH-oxidase activity (human neutrophils; human neutrophils): around 100 nM

fMWYYLF
M3 binding affinity group (M3): lowest binding affinity | Relative potency, mouse versus human neutrophils [1]: more potent for murine cells than for human cells | Potency rank among the peptides ([1]; mouse neutrophils): most potent to activate mouse neutrophils

For-MYFINILTL [f…]
EC50 of NADPH-oxidase activity (superoxide production, isoluminol/HRP chemiluminescence) in human neutrophils [2]: 5 nM

For-MFLIDV [fMFLIDV]
EC50 of NADPH-oxidase activity in mouse neutrophils [3]: 1 nM | EC50 of NADPH-oxidase activity in human neutrophils [4]: 100 nM

For-[dM]YFINILTL [fmYFINILTL]
EC50 of superoxide release from human neutrophils [5]: 200 nM
